Measurements: US20250129430A1, “HIGH ATP-AFFINITY PROTEIN AS THERAPEUTIC TARGET FOR INTRACTABLE CANCER MOLECULAR SUBTYPES AND INHIBITOR THEREOF” (VeraVerse Co., Ltd., priority 2021, published 2025)
Where a name gives a salt, the structure may show the parent alone.

Columns and labels:
Format in all cases: cell-based, human
SNU484 = assay: Cell viability drug screen, 12-point dose-response AUC; settings: SNU484 cells (SEM subtype); 72 hours
Summary of the method: (§1)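 Luminescent viability readings, taken 15 min after reagent addition at room temperature, were normalized to the 0.5% DMSO control to build 12-point dose-response curves. Trapezoidal integration gave the AUC. Cells had been plated at 5×10^3 per well and then exposed to half-log dilutions for 72 h.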

SNU638 = assay: as above; settings: SNU638 cells; 72 hours
Summary of the method: as §1

SNU620 = assay: as above; settings: SNU620 cells; 72 hours
Summary of the method: as §1

AGS = assay: as above; settings: AGS cells (non-SEM subtype); 72 hours
Summary of the method: (§2)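 Each cell line receives a twelve-point half-log titration of drug beginning 24 h after plating 5×10^3 cells per well. Following 72 h culture at 37 °C, luminescent signal is recorded and expressed versus vehicle. AUC is derived by the trapezoidal method.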

Hs746T = assay: as above; settings: Hs746T cells (SEM subtype); 72 hours
Summary of the method: as §1

KATO3 = assay: as above; settings: KATO3 cells; 72 hours
Summary of the method: as §1

SNU1967 = assay: as above; settings: SNU1967 cells; 72 hours
Summary of the method: as §1

MKN74 = assay: as above; settings: MKN74 cells; 72 hours
Summary of the method: as §2

YCC11 = assay: as above; settings: YCC11 cells (SEM subtype); 72 hours
Summary of the method: as §1

NCC24 = assay: as above; settings: NCC24 cells; 72 hours
Summary of the method: as §1

MKN1 = assay: as above; settings: MKN1 cells; 72 hours
Summary of the method: as §1

NCC59 = assay: as above; settings: NCC59 cells; 72 hours
Summary of the method: as §1

NCI_N87 = assay: as above; settings: NCI_N87 cells; 72 hours
Summary of the method: as §1

OCUM1 = assay: as above; settings: OCUM1 cells; 72 hours
Summary of the method: as §1

NCC20 = assay: as above; settings: NCC20 cells; 72 hours
Summary of the method: as §1

NCC19 = assay: as above; settings: NCC19 cells; 72 hours
Summary of the method: as §1

YCC2 = assay: as above; settings: YCC2 cells; 72 hours
Summary of the method: as §1

MKN45 = assay: as above; settings: MKN45 cells (non-SEM subtype); 72 hours
Summary of the method: as §2

SNU1750 = assay: as above; settings: SNU1750 cells (SEM subtype); 72 hours
Summary of the method: as §1

SNU719 = assay: as above; settings: SNU719 cells; 72 hours
Summary of the method: as §2

SNU216 = assay: as above; settings: SNU216 cells (non-SEM subtype); 72 hours
Summary of the method: as §2

SNU16 = assay: as above; settings: SNU16 cells; 72 hours
Summary of the method: as §1

SK4 = assay: as above; settings: SK4 cells (SEM subtype); 72 hours
Summary of the method: as §1

YCC3 = assay: as above; settings: YCC3 cells; 72 hours
Summary of the method: as §1

SNU1 = assay: as above; settings: SNU1 cells; 72 hours
Summary of the method: as §1

SNU668 = assay: as above; settings: SNU668 cells (SEM subtype); 72 hours
Summary of the method: as §1

SNU601 = assay: as above; settings: SNU601 cells; 72 hours
Summary of the method: as §1

MKN28 = assay: as above; settings: MKN28 cells; 72 hours
Summary of the method: as §1

FU97 = assay: as above; design: Average Area Under the Viability Curve (AUC), AUC norm value: scale not given here; settings: FU97 cells; 72 hours
Summary of the method: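 Trapezoidal AUC of a 12-point, DMSO-normalized dose-response curve. Luminescent viability was measured after 72 h of exposure at 37° C to half-log serial dilutions (0.5% DMSO control), dosed 24 h after plating FU97 cells at 5×10^3 per well.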

[1] = tested on: non-SEM-type gastric cancer cell line; assay: Cell viability drug screen, AUC summary over non-SEM-type lines; settings: in the non-SEM-type gastric cancer cell line

| SMILES | Average Area Under the Viability Curve (AUC), AUC norm value (SNU484) | Average Area Under the Viability Curve (AUC), AUC norm value (SNU638) | Average Area Under the Viability Curve (AUC), AUC norm value (SNU620) | Average Area Under the Viability Curve (AUC), AUC norm value (AGS) | Average Area Under the Viability Curve (AUC), AUC norm value (Hs746T) | Average Area Under the Viability Curve (AUC), AUC norm value (KATO3) | Average Area Under the Viability Curve (AUC), AUC norm value (SNU1967) | Average Area Under the Viability Curve (AUC), AUC norm value (MKN74) | Average Area Under the Viability Curve (AUC), AUC norm value (YCC11) | Average Area Under the Viability Curve (AUC), AUC norm value (NCC24) | Average Area Under the Viability Curve (AUC), AUC norm value (MKN1) | Average Area Under the Viability Curve (AUC), AUC norm value (NCC59) | Average Area Under the Viability Curve (AUC), AUC norm value (NCI_N87) | Average Area Under the Viability Curve (AUC), AUC norm value (OCUM1) | Average Area Under the Viability Curve (AUC), AUC norm value (NCC20) | Average Area Under the Viability Curve (AUC), AUC norm value (NCC19) | Average Area Under the Viability Curve (AUC), AUC norm value (YCC2) | Average Area Under the Viability Curve (AUC), AUC norm value (MKN45) | Average Area Under the Viability Curve (AUC), AUC norm value (SNU1750) | Average Area Under the Viability Curve (AUC), AUC norm value (SNU719) | also measured |
| --- | --- | --- | --- | --- | --- | --- | --- | --- | --- | --- | --- | --- | --- | --- | --- | --- | --- | --- | --- | --- | --- |
| c1ccc2c(-c3cnn4cc(-c5ccc(N6CCNCC6)cc5)cnc34)ccnc2c1 [LDN193189] | −0.5999 | −0.9699 | −2.131 | −0.1896 | −0.2954 | 0.6205 | −1.419 | −1.246 | −0.7359 | −0.1464 | 0 | 1.892 | 1.172 | −1.113 | 0.02059 | 0.06094 | 0.1163 | 0.9516 | −0.4695 | 0.6043 | Average Area Under the Viability Curve (AUC), AUC norm value (SNU216): −0.7838; Average Area Under the Viability Curve (AUC), AUC norm value (SNU16): 1.525; Average Area Under the Viability Curve (AUC), AUC norm value (SK4): −0.5339; Average Area Under the Viability Curve (AUC), AUC norm value (YCC3): 0.08342; Average Area Under the Viability Curve (AUC), AUC norm value (SNU1): 0.8706; Average Area Under the Viability Curve (AUC), AUC norm value (SNU668): 0.06394; Average Area Under the Viability Curve (AUC), AUC norm value (SNU601): 3.699; Average Area Under the Viability Curve (AUC), AUC norm value (MKN28): 0.5758; Average Area Under the Viability Curve (AUC), AUC norm value (FU97): −0.1434; AUC value [1]: high |
| CCCCc1oc2ccc(NS(C)(=O)=O)cc2c1C(=O)c1ccc(OCCCN(CCCC)CCCC)cc1 [Dronedarone HCl (Multaq), Dronedarone HCl] | −0.2497 | −0.5649 | −0.3353 | −0.6415 | −0.03562 | 0.1721 | 0.1919 | −1.381 | −0.521 | 1.044 | 0 | 0.6769 | −0.08952 | 0.02571 | −0.2985 | −0.3711 | −0.08246 | 0.6772 | 0.06657 | 1.291 | Average Area Under the Viability Curve (AUC), AUC norm value (SNU216): 0.08211; Average Area Under the Viability Curve (AUC), AUC norm value (SNU16): −0.2149; Average Area Under the Viability Curve (AUC), AUC norm value (SK4): −0.3488; Average Area Under the Viability Curve (AUC), AUC norm value (YCC3): 0.8816; Average Area Under the Viability Curve (AUC), AUC norm value (SNU1): 1.295; Average Area Under the Viability Curve (AUC), AUC norm value (SNU668): 0.4123; Average Area Under the Viability Curve (AUC), AUC norm value (SNU601): 3.848; Average Area Under the Viability Curve (AUC), AUC norm value (MKN28): −0.1927; Average Area Under the Viability Curve (AUC), AUC norm value (FU97): 0.3807; AUC value [1]: high |
